25 substances from the OligoGym collection can be followed below.

HELM strings list units from the 5' end as sugar, base in round brackets, then linkage (d deoxyribose, r ribose, m 2'-O-methyl, p phosphodiester). Strings are as the collection lists them; they lack the last nucleoside at the 3' end of the tested compound. [moe] = 2'-O-(2-methoxyethyl) (MOE); [sp] = phosphorothioate linkage; [m5C] = 5-methylcytosine

In the data set the target is GFAP. Put plainly: mouse, dose not given. The note with it: ASO.
For the substance “RNA1{[moe](G)[sp].[moe](T)p.[moe]([m5C])p.[moe](A)p.[moe]([m5C])p.d(A)[sp].d(T)[sp].d(T)[sp].d([m5C])[sp].d(A)[sp].d([m5C])[sp].d(T)[sp].d(A)[sp].d(A)[sp].d(T)[sp].[moe](A)p.[moe](T)p.[moe](T)[sp].[moe](T)}$$$$ (last 3' nucleoside missing)”, the 3 h FOB score was 0 score 0-7.
The value for “RNA1{[moe](G)[sp].[moe](T)p.[moe]([m5C])p.[moe](A)p.d([m5C])[sp].d(A)[sp].d(T)[sp].d(T)[sp].d([m5C])[sp].d(A)[sp].d([m5C])[sp].d(T)[sp].d(A)[sp].d(A)[sp].[moe](T)p.[moe](A)p.[moe](T)p.[moe](T)[sp].[moe](T)}$$$$ (last 3' nucleoside missing)” was 0 score 0-7; that for “RNA1{[moe](G)[sp].[moe](T)p.[moe]([m5C])p.[moe](T)p.[moe](G)[sp].d(A)[sp].d(G)[sp].d(T)[sp].d([m5C])[sp].d(T)[sp].d([m5C])[sp].d(A)[sp].d(G)[sp].d(T)[sp].d(T)[sp].[moe](T)p.[moe](T)p.[moe]([m5C])[sp].[moe]([m5C])}$$$$ (last 3' nucleoside missing)” was 7 score 0-7; that for “RNA1{[moe](G)[sp].[moe](T)p.[moe]([m5C])p.[moe](T)p.[moe](T)[sp].d(T)[sp].d(A)[sp].d(T)[sp].d(T)[sp].d(T)[sp].d(T)[sp].d(T)[sp].d([m5C])[sp].[moe]([m5C])p.[moe](T)p.[moe]([m5C])[sp].[moe](A)}$$$$ (last 3' nucleoside missing)” was 4 score 0-7.
As to “RNA1{[moe](G)[sp].[moe](T)p.[moe]([m5C])p.[moe](T)p.[moe](T)[sp].d(T)[sp].d(A)[sp].d(T)[sp].d(T)[sp].d(T)[sp].d(T)[sp].d(T)[sp].d([m5C])[sp].d([m5C])[sp].d(T)[sp].[moe]([m5C])p.[moe](A)p.[moe](G)[sp].[moe]([m5C])}$$$$ (last 3' nucleoside missing)”, the 3 h FOB score came to 5 score 0-7.
The value for “RNA1{[moe](G)[sp].[moe](T)p.[moe]([m5C])p.[moe](T)p.[moe]([m5C])[sp].d(A)[sp].d(G)[sp].d(T)[sp].d(T)[sp].d(T)[sp].d(T)[sp].d([m5C])[sp].d([m5C])[sp].d(T)[sp].d([m5C])[sp].[moe]([m5C])p.[moe](A)p.[moe](G)[sp].[moe]([m5C])}$$$$ (last 3' nucleoside missing)” was 0 score 0-7; that for “RNA1{[moe](G)[sp].[moe](T)p.[moe]([m5C])p.[moe](T)p.d(T)[sp].d(T)[sp].d(A)[sp].d(T)[sp].d(T)[sp].d(T)[sp].d(T)[sp].d(T)[sp].d([m5C])[sp].d([m5C])[sp].[moe](T)p.[moe]([m5C])p.[moe](A)p.[moe](G)[sp].[moe]([m5C])}$$$$ (last 3' nucleoside missing)” was 3 score 0-7.
The value for “RNA1{[moe](G)[sp].[moe]([m5C])p.[moe](A)p.[moe](A)p.[moe]([m5C])[sp].d(A)[sp].d(G)[sp].d(T)[sp].d(T)[sp].d(T)[sp].d([m5C])[sp].d([m5C])[sp].d(A)[sp].d(T)[sp].d(A)[sp].[moe](A)p.[moe]([m5C])p.[moe](A)[sp].[moe](A)}$$$$ (last 3' nucleoside missing)” was 0 score 0-7.
The value for “RNA1{[moe](G)[sp].[moe]([m5C])p.[moe](A)p.[moe](G)p.[moe](T)[sp].d(A)[sp].d(T)[sp].d(T)[sp].d(A)[sp].d([m5C])[sp].d([m5C])[sp].d(T)[sp].d([m5C])[sp].[moe](T)p.[moe](A)p.[moe]([m5C])[sp].[moe](T)}$$$$ (last 3' nucleoside missing)” was 1 score 0-7; that for “RNA1{[moe](G)[sp].[moe]([m5C])p.[moe](A)p.[moe](G)p.[moe](T)p.[moe](A)p.d(T)[sp].d(T)[sp].d(A)[sp].d([m5C])[sp].d([m5C])[sp].d(T)[sp].d([m5C])[sp].d(T)[sp].d(A)[sp].d([m5C])[sp].[moe](T)p.[moe](A)[sp].[moe](G)}$$$$ (last 3' nucleoside missing)” was 0 score 0-7; that for “RNA1{[moe](G)[sp].[moe]([m5C])p.[moe](A)p.[moe](G)p.[moe]([m5C])[sp].d(A)[sp].d(T)[sp].d(T)[sp].d(T)[sp].d(G)[sp].d(T)[sp].d([m5C])[sp].d(T)[sp].d(T)[sp].d(T)[sp].[moe](A)p.[moe](T)p.[moe](T)[sp].[moe](T)}$$$$ (last 3' nucleoside missing)” was 4 score 0-7.
As to “RNA1{[moe](G)[sp].[moe]([m5C])p.[moe](A)p.[moe](G)p.d(T)[sp].d(A)[sp].d(T)[sp].d(T)[sp].d(A)[sp].d([m5C])[sp].d([m5C])[sp].d(T)[sp].d([m5C])[sp].d(T)[sp].[moe](A)p.[moe]([m5C])p.[moe](T)p.[moe](A)[sp].[moe](G)}$$$$ (last 3' nucleoside missing)”, the 3 h FOB score was found to be 1 score 0-7.
The value for “RNA1{[moe](G)[sp].[moe]([m5C])p.[moe](A)p.[moe](T)p.[moe](T)[sp].d(T)[sp].d(G)[sp].d(T)[sp].d([m5C])[sp].d(T)[sp].d(T)[sp].d(T)[sp].d(A)[sp].[moe](T)p.[moe](T)p.[moe](T)[sp].[moe](T)}$$$$ (last 3' nucleoside missing)” was 1 score 0-7; that for “RNA1{[moe](G)[sp].[moe]([m5C])p.[moe](A)p.[moe](T)p.[moe](T)[sp].d(T)[sp].d(G)[sp].d(T)[sp].d([m5C])[sp].d(T)[sp].d(T)[sp].d(T)[sp].d(A)[sp].d(T)[sp].d(T)[sp].[moe](T)p.[moe](T)p.[moe](T)[sp].[moe]([m5C])}$$$$ (last 3' nucleoside missing)” was 0 score 0-7.
As for “RNA1{[moe](G)[sp].[moe]([m5C])p.[moe](A)p.[moe](T)p.[moe](T)p.[moe](T)p.d(G)[sp].d(T)[sp].d([m5C])[sp].d(T)[sp].d(T)[sp].d(T)[sp].d(A)[sp].d(T)[sp].d(T)[sp].d(T)[sp].[moe](T)p.[moe](T)[sp].[moe]([m5C])}$$$$ (last 3' nucleoside missing)”, the figure is 1 score 0-7; as for “RNA1{[moe](G)[sp].[moe]([m5C])p.[moe](A)p.[moe]([m5C])p.[moe](A)[sp].d(G)[sp].d(T)[sp].d(T)[sp].d([m5C])[sp].d([m5C])[sp].d([m5C])[sp].d(A)[sp].d(G)[sp].d(A)[sp].d(T)[sp].[moe](A)p.[moe]([m5C])p.[moe](T)[sp].[moe]([m5C])}$$$$ (last 3' nucleoside missing)”, 0 score 0-7; as for “RNA1{[moe](G)[sp].[moe]([m5C])p.[moe](A)p.[moe]([m5C])p.[moe](A)p.[moe](G)p.d(T)[sp].d(T)[sp].d([m5C])[sp].d([m5C])[sp].d([m5C])[sp].d(A)[sp].d(G)[sp].d(A)[sp].d(T)[sp].d(A)[sp].[moe]([m5C])p.[moe](T)[sp].[moe]([m5C])}$$$$ (last 3' nucleoside missing)”, 0 score 0-7.
The value for “RNA1{[moe](G)[sp].[moe]([m5C])p.[moe](G)p.[moe](A)p.[moe](G)[sp].d([m5C])[sp].d(G)[sp].d(G)[sp].d(A)[sp].d(G)[sp].d(G)[sp].d([m5C])[sp].d([m5C])[sp].d(T)[sp].d(G)[sp].[moe](G)p.[moe](G)p.[moe](T)[sp].[moe](G)}$$$$ (last 3' nucleoside missing)” was 6 score 0-7.
In turn, “RNA1{[moe](G)[sp].[moe]([m5C])p.[moe](G)p.[moe](A)p.[moe](T)[sp].d(G)[sp].d(G)[sp].d(A)[sp].d(G)[sp].d([m5C])[sp].d([m5C])[sp].d(T)[sp].d([m5C])[sp].d(A)[sp].d(G)[sp].[moe](G)p.[moe](G)p.[moe](A)[sp].[moe](T)}$$$$ (last 3' nucleoside missing)” yielded a 3 h FOB score of 7 score 0-7.
The value for “RNA1{[moe](G)[sp].[moe]([m5C])p.[moe](T)p.[moe](T)p.[moe](T)[sp].d(T)[sp].d(G)[sp].d(A)[sp].d(G)[sp].d(A)[sp].d(T)[sp].d(A)[sp].d(T)[sp].[moe]([m5C])p.[moe](T)p.[moe](T)[sp].[moe](G)}$$$$ (last 3' nucleoside missing)” was 3 score 0-7; that for “RNA1{[moe](G)[sp].[moe]([m5C])p.[moe](T)p.[moe](T)p.[moe](T)[sp].d(T)[sp].d(G)[sp].d(A)[sp].d(G)[sp].d(A)[sp].d(T)[sp].d(A)[sp].d(T)[sp].d([m5C])[sp].d(T)[sp].[moe](T)p.[moe](G)p.[moe](T)[sp].[moe](G)}$$$$ (last 3' nucleoside missing)” was 2 score 0-7; that for “RNA1{[moe](G)[sp].[moe]([m5C])p.[moe](T)p.[moe](T)p.[moe](T)p.[moe](T)p.d(G)[sp].d(A)[sp].d(G)[sp].d(A)[sp].d(T)[sp].d(A)[sp].d(T)[sp].d([m5C])[sp].d(T)[sp].d(T)[sp].[moe](G)p.[moe](T)[sp].[moe](G)}$$$$ (last 3' nucleoside missing)” was 2 score 0-7.
As for “RNA1{[moe](G)[sp].[moe]([m5C])p.[moe](T)p.[moe](T)p.[moe](T)p.[moe](T)p.d(G)[sp].d([m5C])[sp].d([m5C])[sp].d([m5C])[sp].d([m5C])[sp].d([m5C])[sp].d(T)[sp].d(G)[sp].d(T)[sp].d(A)[sp].[moe](G)p.[moe](T)[sp].[moe](G)}$$$$ (last 3' nucleoside missing)”, the figure is 3 score 0-7; as for “RNA1{[moe](G)[sp].[moe]([m5C])p.[moe](T)p.[moe](T)p.[moe](T)p.d(T)[sp].d(G)[sp].d([m5C])[sp].d([m5C])[sp].d([m5C])[sp].d([m5C])[sp].d([m5C])[sp].d(T)[sp].d(G)[sp].d(T)[sp].[moe](A)p.[moe](G)p.[moe](T)[sp].[moe](G)}$$$$ (last 3' nucleoside missing)”, 4 score 0-7; as for “RNA1{[moe](G)[sp].[moe]([m5C])p.[moe](T)p.[moe](T)p.d(T)[sp].d(T)[sp].d(G)[sp].d(A)[sp].d(G)[sp].d(A)[sp].d(T)[sp].d(A)[sp].d(T)[sp].d([m5C])[sp].[moe](T)p.[moe](T)p.[moe](G)p.[moe](T)[sp].[moe](G)}$$$$ (last 3' nucleoside missing)”, 1 score 0-7.
